Measured values taken from the NIST ThermoML archive (doi:10.1021/je0342421).

Conditions: Liquid

CCOC(C)(C)C [2-ethoxy-2-methylpropane]
Conditions | vapor or sublimation pressure [kPa]
312.49 K | 31.7
318.55 K | 40.2
323.25 K | 47.2
325.18 K | 51.4
326.6 K | 54.1
329.02 K | 59
331.96 K | 65.3
333.28 K | 67.4
335.92 K | 74.8
338.08 K | 80.5
340.01 K | 85.8
341.49 K | 90.1
342.88 K | 94.3
343.86 K | 97
345.77 K | 102.8
